Assay results from patent publication US9988623B2, “Methods of X-aptamer generation and compositions thereof” (Board of Regents of the University of Texas System, priority 2012, dated 2018).
Values joined by “and” are separate entries in the source; they are usually repeats but may differ in a detail not shown here. Equal values may be shown once. Oligonucleotides are written 5' to 3', each unit as a sugar letter and its base; * is a phosphorothioate linkage, no mark a phosphodiester; rarer units and linkages stand in square brackets, end groups in braces. Plain capitals give the bases only. d = 2'-deoxy (DNA)

B1: ESTA-1: ESTA-1 thioaptamer sequence (SEQ. ID. 32), IRdye 800-labelled, gold nanoparticle (FIG. 16) (nucleic acid)
DNA: CGCTCGGATCGATAAGCTTCGATCCCACTCTCCCGTTCACTTCTCCTCACGTCACGGATCCTCTAGAGCACTG
modifications: Thioaptamer, thioate positions not given here, IRdye 800 label, gold nanoparticle conjugate

Experiments:
[1] = molecular target: T1, CD44-HABD (Homo sapiens, UniProt P16070); test: Filter binding assay of biotinylated XAs with CD44-HABD
T1 construct: DNA encoding CD44-HABD (amino acid residues 20-178) was synthesized and cloned into expression vector pET19b; made in house
Method: Filter binding assay. The equilibrium binding constants of selected XAs for CD44-HABD were determined by a filter binding assay. The biotinylated XAs (1 nM) were incubated with varying concentrations of CD44-HABD in 50 μL of 20 mM Tris, pH 8.0, 150 mM NaCl for 40 min at room temperature and then transferred to a 96-well dot-blot apparatus and filtered under vacuum onto nitrocellulose membranes, which retain the CD44-HABD along with any bound XAs. The amount of biotinylated XA retained at each spot was determined by chemiluminescent detection using the Chemiluminescent Nucleic Acid Detection Module (Thermo Scientific) following the manufacturer's instructions. The chemiluminescent signals were collected on a Chemimager (Alpha Innotech). Image analysis and quantification of spot intensities were performed using ImageJ (version 1.42q). Binding analysis was based on the spot intensities on the nitrocellulose membranes with subtraction of background spot intensity due to the buffer effect from all the data points. Saturation binding curves were generated by using GraphPad Prism with curve fits assuming a single binding site. The NH2 XA column lists KDs for XAs where X=amino-dU. The ADDA XA column lists KDs for XAs where X=ADDA-dU.
The equilibrium binding constants of the small constructs were determined by the filter binding assay. The derived equilibrium binding constants of the above small XA constructs are shown below in Table 4.

[2] = molecular target: T1, CD44-HABD; test: 1H-NMR titration of CD44-HABD with ADDA (equilibrium dissociation constant); format: binding
Method: ADDA binding to CD44-HABD. CD44-HABD was prepared in the NMR buffer (20 mM Tris, 50 mM NaCl, 5% (v/v) D2O, pH 6.7). ADDA was dissolved in DMSO (1.4 M) as stock solution. The ADDA sample for NMR was prepared in the same buffer (20 mM Tris, 50 mM NaCl, 1.25 mM ADDA, 0.1% (v/v) DMSO, 5% (v/v) D2O, pH 6.7). CD44-HABD (27 μM) with various concentration of ADDA (14 μM, 25 μM, 50 μM, 250 μM and 1250 μM) was also prepared in the same buffer. The ^1H-NMR spectra of CD44-HABD only, ADDA only and CD44-HABD in presence of ADDA were obtained.
The equilibrium dissociation constant of ADDA to CD44-HABD was determined by ^1H-NMR.

[3] = system: human pancreatic cancer xenograph; test: Near infrared imaging of IR800dye-labeled thioaptamer in mouse xenograft; format: in vivo; conditions: mouse with human pancreatic cancer xenograph
Text: Use of Thioaptamers in vivo.

[4] = permonothioated full-length XA, X = ADDA-dU, read-out: KD (nM) ADDA XA
[5] = permonothioated full-length XA, X = amino-dU, read-out: KD (nM) NH2 XA

T1 sequence (P16070 20-178): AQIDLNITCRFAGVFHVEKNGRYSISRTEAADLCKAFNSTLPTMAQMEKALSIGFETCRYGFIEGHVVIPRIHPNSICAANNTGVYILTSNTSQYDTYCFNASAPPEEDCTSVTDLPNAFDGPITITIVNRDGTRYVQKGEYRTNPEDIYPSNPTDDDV

Molecule	Kd [1, 4]	Kd [1, 5]	other results
1 (DNA AAGGGAACCAAGGACACTAC; DNA, backbone not given here; tested as phosphodiester and as thiophosphate form) [Motif 1]	–	–	Kd ([1]; truncated motif without X, phosphate backbone, read-out: Dissociation constant (nM), phosphoaptamer form): 10.3 ± 1.3 nM; Kd ([1]; truncated motif without X, thiophosphate backbone, read-out: Dissociation constant (nM), thioaptamer form): 15 ± 2 nM
CC(=O)N[C@H]1[C@H]([C@H](O)[C@H](O)CO)OC(C(=O)O)=C[C@@H]1O [ADDA, N-acetyl-2,3-dehydro-2-deoxyneuraminic acid]	–	–	Kd ([2]; 1H-NMR peak 7.7925 ppm, read-out: KD): 3080 µM; Kd ([2]; 1H-NMR peak 7.9025 ppm, read-out: KD): 1440 µM; Kd ([2]; 1H-NMR peak 7.9225 ppm, read-out: KD): 1720 µM; Kd ([2]; 1H-NMR peak 7.9375 ppm, read-out: KD): 1920 µM; Kd ([2]; 1H-NMR peak 7.9575 ppm, read-out: KD): 1710 µM; Kd ([2]; 1H-NMR peak 7.9925 ppm, read-out: KD): 3430 µM; Kd ([2]; average over the six selected 1H-NMR peaks, read-out: Average KD): 2220 µM and ~2000 µM
XA2: permonothioated X-aptamer to CD44-HABD, SEQ ID NO 13; X = amino-dU or ADDA-dU (DNA NGCAGATCTGCAAGGGAACCAAGGACACTA; phosphorothioate; amino-dU or ADDA-dU modified; (1)..(1) n = X = 5-(aminoethyl-3-acrylimido)- deoxyuridine)	78.3 ± 18.1 nM	55.5 ± 13.4 nM	–
XA3: permonothioated X-aptamer to CD44-HABD, SEQ ID NO 14; X = amino-dU or ADDA-dU (DNA CCAAGGCCTGCAAGGGAACCAAGTCCANTA; phosphorothioate; amino-dU or ADDA-dU modified; (28)..(28) n = X = 5-(aminoethyl-3-acrylimido)- deoxyuridine)	140 ± 16.8 nM	111 ± 18.5 nM	–
XA6: permonothioated X-aptamer to CD44-HABD, SEQ ID NO 17; X = amino-dU or ADDA-dU (DNA TTGGGGCCTGCAAGACGACCNAAACGANGA; phosphorothioate; amino-dU or ADDA-dU modified; (21)..(21) n = X = 5-(aminoethyl-3-acrylimido)- deoxyuridine; (28)..(28) n = X = 5-(aminoethyl-3-acrylimido)- deoxyuridine)	150 ± 25.7 nM	214 ± 31.6 nM	–
XA7: permonothioated X-aptamer to CD44-HABD, SEQ ID NO 18; X = amino-dU or ADDA-dU (DNA NNAAGACGCANTAANGAACCAAGGACGTGA; phosphorothioate; amino-dU or ADDA-dU modified; (1)..(2) n = X = 5-(aminoethyl-3-acrylimido)- deoxyuridine; (11)..(11) n = X = 5-(aminoethyl-3-acrylimido)- deoxyuridine; (15)..(15) n = X = 5-(aminoethyl-3-acrylimido)- deoxyuridine)	116 ± 20.7 nM	306 ± 69.3 nM	–
XA8: permonothioated X-aptamer to CD44-HABD, SEQ ID NO 19; X = amino-dU or ADDA-dU (DNA CCAAGATCNGNAAGGTANCCGGGGACNG; phosphorothioate; amino-dU or ADDA-dU modified; (9)..(9) n = X = 5-(aminoethyl-3-acrylimido)- deoxyuridine; (11)..(11) n = X = 5-(aminoethyl-3-acrylimido)- deoxyuridine; (18)..(18) n = X = 5-(aminoethyl-3-acrylimido)- deoxyuridine; (27)..(27) n = X = 5-(aminoethyl-3-acrylimido)- deoxyuridine)	274 ± 54.3 nM	463 ± 82.4 nM	–
XA10: permonothioated X-aptamer to CD44-HABD, SEQ ID NO 21; X = amino-dU or ADDA-dU (DNA dT*dT*dG*dG*dG*dG*dC*dC*dC*dA*dG*dT*dA*dG*dG*dT*dA*dA*dC*dC*dG*dG*dG*dG*dA*dC*dA*dG; further chemistry not given here)	–	450 ± 180 nM	–
XA11: permonothioated X-aptamer to CD44-HABD, SEQ ID NO 22; X = amino-dU or ADDA-dU (DNA TTGGGACGTAAGTAANGGGGGACANGA; phosphorothioate; amino-dU or ADDA-dU modified; (16)..(16) n = X = 5-(aminoethyl-3-acrylimido)- deoxyuridine; (25)..(25) n = X = 5-(aminoethyl-3-acrylimido)- deoxyuridine)	1090 ± 390 nM	846 ± 151 nM	–
XA12: permonothioated X-aptamer to CD44-HABD, SEQ ID NO 23; X = amino-dU or ADDA-dU (DNA NNAAGGCCNGNTAAANGATATCCACTA; phosphorothioate; amino-dU or ADDA-dU modified; (1)..(2) n = X = 5-(aminoethyl-3-acrylimido)- deoxyuridine; (9)..(9) n = X = 5-(aminoethyl-3-acrylimido)- deoxyuridine; (11)..(11) n = X = 5-(aminoethyl-3-acrylimido)- deoxyuridine; (16)..(16) n = X = 5-(aminoethyl-3-acrylimido)- deoxyuridine)	879 ± 135 nM	963 ± 183 nM	–
XA13: permonothioated X-aptamer to CD44-HABD, SEQ ID NO 24; X = amino-dU or ADDA-dU (DNA NGCAGATCTGCAAGGGAAAGATAGACACAG; phosphorothioate; amino-dU or ADDA-dU modified; (1)..(1) n = X = 5-(aminoethyl-3-acrylimido)- deoxyuridine)	312 ± 68.5 nM	1380 ± 237 nM	–
B1	–	–	accumulation in tumor (near infrared image) [3]: accumulates in the tumor
